According to patent US8470820B2, “Nitrogen-containing heteroaryl derivatives” (Hoffman-La Roche Inc., priority 2010, dated 2013):
pIC50: −log10 of the molar value.

Legend:
[1] = system: rats; conditions: sub-chronic treatment with PCP (NMDA receptor hypofunction paradigm); cited from earlier work
[2] = target: human PDE10A (Homo sapiens (Human), UniProt Q9Y233); test: human PDE10A full length Scintillation Proximity Assay (SPA); type: biochemical; conditions: 50 nM cGMP and 50 nM [3H]-cGMP, 20 minutes at room temperature, read-out: PDE10A inhibition IC50
human PDE10A, sequence (Q9Y233 other isoform, or with tags, fused parts or gaps): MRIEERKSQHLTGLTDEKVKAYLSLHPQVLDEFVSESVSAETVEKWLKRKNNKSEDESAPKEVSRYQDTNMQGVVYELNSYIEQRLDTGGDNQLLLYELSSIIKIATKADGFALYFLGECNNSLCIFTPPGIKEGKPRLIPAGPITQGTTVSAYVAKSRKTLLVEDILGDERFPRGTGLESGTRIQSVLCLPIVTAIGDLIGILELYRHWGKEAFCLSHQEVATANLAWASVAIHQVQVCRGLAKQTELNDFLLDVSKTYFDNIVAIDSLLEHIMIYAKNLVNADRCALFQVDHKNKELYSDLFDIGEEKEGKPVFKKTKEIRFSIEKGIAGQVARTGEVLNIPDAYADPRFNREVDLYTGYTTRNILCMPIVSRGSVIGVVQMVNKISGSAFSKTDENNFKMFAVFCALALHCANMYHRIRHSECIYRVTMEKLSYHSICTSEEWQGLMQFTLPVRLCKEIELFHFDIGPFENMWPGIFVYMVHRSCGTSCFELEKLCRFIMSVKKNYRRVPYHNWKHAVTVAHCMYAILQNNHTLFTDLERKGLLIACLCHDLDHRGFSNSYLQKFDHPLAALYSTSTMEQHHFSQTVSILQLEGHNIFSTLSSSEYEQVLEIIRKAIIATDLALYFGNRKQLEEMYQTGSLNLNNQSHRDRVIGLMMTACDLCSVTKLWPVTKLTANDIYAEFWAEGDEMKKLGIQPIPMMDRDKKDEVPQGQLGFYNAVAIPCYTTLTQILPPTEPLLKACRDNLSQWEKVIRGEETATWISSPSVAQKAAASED
Procedure: The following test was carried out in order to determine the activity of the compounds of the present invention. PDE10 activity of the compounds of the present invention was determined using a Scintillation Proximity Assay (SPA)-based method similar to the one previously described (Fawcett, L. et al., Proc Natl Acad Sci USA (2000) 97(7):3702-3707).
The human PDE10A full length assay was performed in 96-well micro titer plates. The reaction mixture of 50 μl contained 20 mM HEPES pH=7.5/10 mM MgCl2/0.05 mg/ml BSA (Sigma cat. # A-7906), 50 nM cGMP (Sigma, cat. # G6129) and 50 nM [^3H]-cGMP (GE Healthcare, cat. # TRK392 S.A. 13.2Ci/mmol), 3.75 ng/well PDE10A enzyme (Enzo Life Science, Lausen, Switzerland cat # SE-534) with or without a specific test compound. A range of concentrations of the potential inhibitor was used to generate data for calculating the concentration of inhibitor resulting in 50% of the effect (e.g. IC50, the concentration of the competitor inhibiting PDE10A activity by 50%). Non-specific activity was tested without the enzyme. The reaction was initiated by the addition of the substrate solution (cGMP and [^3H]-cGMP) and allowed to progress for 20 minutes at room temperature. The reaction was terminated by adding 25 μA of YSi-SPA scintillation beads (GE Healthcare, cat. # RPNQ0150) in 18 mM zinc sulphate solution (stop reagent). After 1 h under shaking, the plate was centrifuged one minute at 170 g to allow beads to settle. Afterwards, radioactive counts were measured on a Perkin Elmer TopCount Scintillation plate reader.

SMILES	pIC50 [2]	effect on deficits in extra-dimensional shift learning [1]
COc1ccc(Cc2nccc3cc(OC)c(OC)cc23)cc1OC [papaverine, Papaverine]		attenuate the deficits in the extra-dimensional shift learning
O=C(Nc1nnc(-c2cnccn2)s1)c1nc(C2CC2)ccc1Nc1cncnc1 [Example 49, 6-Cyclopropyl-3-(pyrimidin-5-ylamino)-pyridine-2-carboxylic acid (5-pyrazin-2-yl-[1,3,4]thiadiazol-2-yl)-amide]	6.13	
Cn1nc(-c2ccccn2)cc1NC(=O)c1nc(C2CC2)ccc1Nc1cncnc1 [Example 8, 6-Cyclopropyl-3-(pyrimidin-5-ylamino)-pyridine-2-carboxylic acid (2-methyl-5-pyridin-2-yl-2H-pyrazol-3-yl)-amide]	8.30	
CCn1nc(-c2ccccn2)cc1NC(=O)c1nc(C2CC2)ccc1Nc1cncnc1 [Example 30, 6-Cyclopropyl-3-(pyrimidin-5-ylamino)-pyridine-2-carboxylic acid (2-ethyl-5-pyridin-2-yl-2H-pyrazol-3-yl)-amide]	8.30	
Cn1nc(-c2ccc(Cl)cn2)cc1NC(=O)c1nc(C2CC2)ccc1Nc1cncnc1 [Example 39, 6-Cyclopropyl-3-(pyrimidin-5-ylamino)-pyridine-2-carboxylic acid [5-(5-chloro-pyridin-2-yl)-2-methyl-2H-pyrazol-3-yl]-amide]	8.52	
O=C(Nc1cc(-c2ccc(Br)cc2)no1)c1nc(C2CC2)ccc1Nc1cncnc1 [Example 57, 6-Cyclopropyl-3-(pyrimidin-5-ylamino)-pyridine-2-carboxylic acid [3-(4-bromo-phenyl)-isoxazol-5-yl]-amide]	6.11	

Second part, led by results:

pIC50 [2]	SMILES	effect on deficits in extra-dimensional shift learning [1]
8.52	CC(C)n1nc(-c2ccccn2)cc1NC(=O)c1nc(C2CC2)ccc1Nc1cncnc1 [Example 27, 6-Cyclopropyl-3-(pyrimidin-5-ylamino)-pyridine-2-carboxylic acid (2-isopropyl-5-pyridin-2-yl-2H-pyrazol-3-yl)-amide]	
9.00	O=C(Nc1cc(-c2cccc(Cl)n2)nn1CCO)c1nc(C2CC2)ccc1Nc1cncnc1 [Example 24, 6-Cyclopropyl-3-(pyrimidin-5-ylamino)-pyridine-2-carboxylic acid [5-(6-chloro-pyridin-2-yl)-2-(2-hydroxy-ethyl)-2H-pyrazol-3-yl]-amide]	
8.70	O=C(Nc1cc(-c2ccccn2)nn1CC(F)(F)F)c1nc(C2CC2)ccc1Nc1cncnc1 [Example 22, 6-Cyclopropyl-3-(pyrimidin-5-ylamino)-pyridine-2-carboxylic acid [5-pyridin-2-yl-2-(2,2,2-trifluoro-ethyl)-2H-pyrazol-3-yl]-amide]	
> 9.00	COCCn1nc(-c2ccccn2)cc1NC(=O)c1nc(C2CC2)ccc1Nc1cncnc1 [Example 38, 6-Cyclopropyl-3-(pyrimidin-5-ylamino)-pyridine-2-carboxylic acid [2-(2-methoxy-ethyl)-5-pyridin-2-yl-2H-pyrazol-3-yl]-amide]	
